# In patent publication US9469650B2, “Melampomagnolide B derivatives” (BOARD OF TRUSTEES OF THE UNIVERSITY OF ARKANSAS, priority 2013, dated 2016):
# Like-named read-outs stand apart in the source and are kept apart here.
# Experiments:
# K-562 = assay: panel of 60 human tumor cell lines, growth inhibition (Leukemia); details: K-562
# SF-268 = assay: panel of 60 human tumor cell lines, growth inhibition (CNS Cancer); details: SF-268
# HCC-2998 = assay: panel of 60 human tumor cell lines, growth inhibition (Colon Cancer); details: HCC-2998
# M14 = assay: panel of 60 human tumor cell lines, growth inhibition (Melanoma); details: M14
# ACHN = assay: panel of 60 human tumor cell lines, growth inhibition (Renal Cancer)
# SW-620 = assay: panel of 60 human tumor cell lines, growth inhibition (Colon Cancer); details: SW-620
# SNB-75 = assay: panel of 60 human tumor cell lines, growth inhibition (CNS Cancer); details: SNB-75
# SF-295 = assay: as above; details: SF-295
# NCI-H226 = assay: panel of 60 human tumor cell lines, growth inhibition (Non-Small Cell Lung Cancer); details: NCI-H226
# LOX IMVI = assay: panel of 60 human tumor cell lines, growth inhibition (Melanoma)
# CAKI-1 = assay: panel of 60 human tumor cell lines, growth inhibition (Renal Cancer); details: CAKI-1
# MOLT-4 = assay: panel of 60 human tumor cell lines, growth inhibition (Leukemia); details: MOLT-4
# HS 578T = assay: panel of 60 human tumor cell lines, growth inhibition (Breast Cancer); details: HS 578T
# UO-31 = assay: panel of 60 human tumor cell lines, growth inhibition (Renal Cancer); details: UO-31
# SK-MEL-28 = assay: panel of 60 human tumor cell lines, growth inhibition (Melanoma); details: SK-MEL-28
# SR = assay: panel of 60 human tumor cell lines, growth inhibition (Leukemia)
# T-47D = assay: panel of 60 human tumor cell lines, growth inhibition (Breast Cancer); details: T-47D
# SNB-19 = assay: panel of 60 human tumor cell lines, growth inhibition (CNS Cancer); details: SNB-19
smiles,measurement,setting,value
C=C1C(=O)O[C@H]2[C@H]1CC/C(COC(=O)N1CCC(F)(F)CC1)=C\CC[C@@]1(C)O[C@@H]21 [JVM 2-66],GI50,K-562,3.45 µM
same,TGI,K-562,3.61E−5
same,Percent Growth,K-562; Log10 Concentration −4.0,−10%
same,Percent Growth,K-562; Log10 Concentration −5.0,13%
same,Percent Growth,K-562; Log10 Concentration −6.0,93%
same,Percent Growth,K-562; Log10 Concentration −7.0,95%
same,Percent Growth,K-562; Log10 Concentration −8.0,104%
same,GI50,SF-268,10.7 µM
same,TGI,SF-268,2.47E−5
same,Percent Growth,SF-268; Log10 Concentration −4.0,−84%
same,Percent Growth,SF-268; Log10 Concentration −5.0,54%
same,Percent Growth,SF-268; Log10 Concentration −6.0,95%
same,Percent Growth,SF-268; Log10 Concentration −7.0,93%
same,Percent Growth,SF-268; Log10 Concentration −8.0,95%
same,GI50,HCC-2998,6.24 µM
same,TGI,HCC-2998,2.11E−5
same,Percent Growth,HCC-2998; Log10 Concentration −4.0,−77%
same,Percent Growth,HCC-2998; Log10 Concentration −5.0,37%
same,Percent Growth,HCC-2998; Log10 Concentration −6.0,101%
same,Percent Growth,HCC-2998; Log10 Concentration −7.0,91%
same,Percent Growth,HCC-2998; Log10 Concentration −8.0,96%
same,Percent Growth,M14; Log10 Concentration −4.0,−85%
same,Percent Growth,M14; Log10 Concentration −5.0,8%
same,Percent Growth,M14; Log10 Concentration −6.0,85%
same,Percent Growth,M14; Log10 Concentration −7.0,87%
same,Percent Growth,M14; Log10 Concentration −8.0,96%
same,GI50,ACHN,1.79 µM
same,TGI,ACHN,5.68E−6
same,Percent Growth,ACHN; Log10 Concentration −4.0,−83%
same,Percent Growth,ACHN; Log10 Concentration −5.0,−25%
same,Percent Growth,ACHN; Log10 Concentration −6.0,75%
same,Percent Growth,ACHN; Log10 Concentration −7.0,93%
same,Percent Growth,ACHN; Log10 Concentration −8.0,103%
same,CC50,ACHN; read-out: LC50,27.4 µM
same,GI50,SW-620,1.46 µM
same,TGI,SW-620,4.37E−6
same,Percent Growth,SW-620; Log10 Concentration −4.0,−86%
same,Percent Growth,SW-620; Log10 Concentration −5.0,−38%
same,Percent Growth,SW-620; Log10 Concentration −6.0,67%
same,Percent Growth,SW-620; Log10 Concentration −7.0,97%
same,Percent Growth,SW-620; Log10 Concentration −8.0,99%
same,GI50,SNB-75,6.13 µM
same,TGI,SNB-75,2.03E−5
same,Percent Growth,SNB-75; Log10 Concentration −4.0,−95%
same,Percent Growth,SNB-75; Log10 Concentration −5.0,42%
same,Percent Growth,SNB-75; Log10 Concentration −6.0,79%
same,Percent Growth,SNB-75; Log10 Concentration −7.0,75%
same,Percent Growth,SNB-75; Log10 Concentration −8.0,87%
same,GI50,SF-295,12 µM
same,TGI,SF-295,2.49E−5
same,Percent Growth,SF-295; Log10 Concentration −4.0,−96%
same,Percent Growth,SF-295; Log10 Concentration −5.0,63%
same,Percent Growth,SF-295; Log10 Concentration −6.0,91%
same,Percent Growth,SF-295; Log10 Concentration −7.0,91%
same,Percent Growth,SF-295; Log10 Concentration −8.0,95%
same,TGI,NCI-H226,4.35E−6
same,Percent Growth,NCI-H226; Log10 Concentration −4.0,−71%
same,Percent Growth,NCI-H226; Log10 Concentration −5.0,−49%
same,Percent Growth,NCI-H226; Log10 Concentration −6.0,87%
same,Percent Growth,NCI-H226; Log10 Concentration −7.0,90%
same,Percent Growth,NCI-H226; Log10 Concentration −8.0,102%
same,GI50,LOX IMVI,2.23 µM
same,TGI,LOX IMVI,5.77E−6
same,Percent Growth,LOX IMVI; Log10 Concentration −4.0,−89%
same,Percent Growth,LOX IMVI; Log10 Concentration −5.0,−29%
same,Percent Growth,LOX IMVI; Log10 Concentration −6.0,92%
same,Percent Growth,LOX IMVI; Log10 Concentration −7.0,93%
same,Percent Growth,LOX IMVI; Log10 Concentration −8.0,96%
same,GI50,CAKI-1,2.03 µM
same,TGI,CAKI-1,6.16E−6
same,Percent Growth,CAKI-1; Log10 Concentration −4.0,−97%
same,Percent Growth,CAKI-1; Log10 Concentration −5.0,−22%
same,Percent Growth,CAKI-1; Log10 Concentration −6.0,82%
same,Percent Growth,CAKI-1; Log10 Concentration −7.0,91%
same,Percent Growth,CAKI-1; Log10 Concentration −8.0,97%
same,GI50,MOLT-4,2.05 µM
same,TGI,MOLT-4,5.71E−6
same,Percent Growth,MOLT-4; Log10 Concentration −4.0,−39%
same,Percent Growth,MOLT-4; Log10 Concentration −5.0,−27%
same,Percent Growth,MOLT-4; Log10 Concentration −6.0,85%
same,Percent Growth,MOLT-4; Log10 Concentration −7.0,85%
same,Percent Growth,MOLT-4; Log10 Concentration −8.0,94%
same,GI50,HL-60(TB),2.04 µM
same,TGI,HL-60(TB),7.15E−6
same,Percent Growth,HL-60(TB); Log10 Concentration −4.0,−49%
same,Percent Growth,HL-60(TB); Log10 Concentration −5.0,−13%
same,Percent Growth,HL-60(TB); Log10 Concentration −6.0,79%
same,Percent Growth,HL-60(TB); Log10 Concentration −7.0,84%
same,Percent Growth,HL-60(TB); Log10 Concentration −8.0,97%
same,CC50,HL-60(TB); read-out: LC50,> 100 µM
same,GI50,HS 578T,13.5 µM
same,TGI,HS 578T,7.06E−5
same,Percent Growth,HS 578T; Log10 Concentration −4.0,−10%
same,Percent Growth,HS 578T; Log10 Concentration −5.0,59%
same,Percent Growth,HS 578T; Log10 Concentration −6.0,89%
same,Percent Growth,HS 578T; Log10 Concentration −7.0,93%
same,Percent Growth,HS 578T; Log10 Concentration −8.0,93%
same,GI50,UO-31,1.99 µM
same,TGI,UO-31,5.44E−6
same,Percent Growth,UO-31; Log10 Concentration −4.0,−88%
same,Percent Growth,UO-31; Log10 Concentration −5.0,−30%
same,Percent Growth,UO-31; Log10 Concentration −6.0,84%
same,Percent Growth,UO-31; Log10 Concentration −7.0,86%
same,Percent Growth,UO-31; Log10 Concentration −8.0,80%
same,GI50,SK-MEL-28,2.51 µM
same,TGI,SK-MEL-28,7.42E−6
same,Percent Growth,SK-MEL-28; Log10 Concentration −4.0,−84%
same,Percent Growth,SK-MEL-28; Log10 Concentration −5.0,−14%
same,Percent Growth,SK-MEL-28; Log10 Concentration −6.0,92%
same,Percent Growth,SK-MEL-28; Log10 Concentration −7.0,94%
same,Percent Growth,SK-MEL-28; Log10 Concentration −8.0,102%
same,GI50,SR,1.38 µM
same,TGI,SR,7.24E−6
same,Percent Growth,SR; Log10 Concentration −4.0,−38%
same,Percent Growth,SR; Log10 Concentration −5.0,−10%
same,Percent Growth,SR; Log10 Concentration −6.0,60%
same,Percent Growth,SR; Log10 Concentration −7.0,87%
same,Percent Growth,SR; Log10 Concentration −8.0,94%
same,GI50,T-47D,3.07 µM
same,TGI,T-47D,1.64E−5
same,Percent Growth,T-47D; Log10 Concentration −4.0,−45%
same,Percent Growth,T-47D; Log10 Concentration −5.0,13%
same,Percent Growth,T-47D; Log10 Concentration −6.0,86%
same,Percent Growth,T-47D; Log10 Concentration −7.0,84%
same,Percent Growth,T-47D; Log10 Concentration −8.0,93%
same,GI50,SNB-19,12.8 µM
same,TGI,SNB-19,2.84E−5
same,Percent Growth,SNB-19; Log10 Concentration −4.0,−79%
same,Percent Growth,SNB-19; Log10 Concentration −5.0,66%
same,Percent Growth,SNB-19; Log10 Concentration −6.0,89%
same,Percent Growth,SNB-19; Log10 Concentration −7.0,91%
same,Percent Growth,SNB-19; Log10 Concentration −8.0,93%
